# Laboratory results as given in US11351165B2, “Agent that increases the expression of the opioid kappa 1 for the treatment of cancer” (LDN Pharma Limited, priority 2017, dated 2022).
# How the values were obtained:
# Format in all cases: cell-based
# A549 cells = assay: Priming with 6-β-naltrexol, then chemotherapy agent; cell number and viability by trypan blue counting, A549; conditions: FIG. 2c
# Experimental: (§1) The impact of combining 6-β-naltrexol with other chemotherapy agents was tested by culturing cells according to a treatment schedule that involved two phases of treatment. The first phase involved priming with 10 nM 6-β-naltrexol or 10 μM 6-β-naltrexol for 48 h, before treatment with another drug for a further 48 h. A549 and HCT116 cells were seeded into 6-well plates at a density of 2×10^5 cells/well and left to adhere overnight. Media was removed after 48 h, and cells were rinsed gently with drug-free medium. Fresh culture medium that contained gemcitabine (GEM) or oxaliplatin (OXP) was then added to the cells. The concentrations of the chemotherapy agents used were approximately ¼ IC50, as established previously [Liu W M, Fowler D W, Smith P, Dalgleish A G. Pre-treatment with chemotherapy can enhance the antigenicity and immunogenicity of tumours by promoting adaptive immune responses. Br J Cancer. 2010 Jan. 5; 102(1):115-23. doi: 10.1038/sj.bjc.6605465.]. Cells were then left for a further 48 h before assessment of cell number of viability by cell counting using trypan blue dye as a way of discriminating live and dead cells. Cytostasis was indicated by a reduction in cell number and no associated reduction in cell viability.
# OPRK1 [1] = assay: Level of expression of OPRK1 by immunoblotting in HCT116 cells; conditions: HCT116 colon cancer cells, 1 nM to 10 μM for 48 h
# Experimental: (§2) In order to determine the effect of 6-β-naltrexol or naltrexone on the level of expression of OPRK1, A549 lung cancer or HCT116 colon cancer cells were seeded onto 6-well plates at a density of 2×10^5 cell/well, and allowed to adhere overnight. Cells were then cultured in the presence of naltrexone or 6-β-naltrexol at concentrations of 1 nM, 10 nM, 100 nM, 1 μM or 10 μM for a further 48 h. Cells were then harvested and processed for measurements of OPRK1, opioid receptor-μ1 (OPRM1) and GAPDH using standard immunoblotting techniques.
# HCT116 cells = assay: Priming with 6-β-naltrexol, then chemotherapy agent; cell number and viability by trypan blue counting, HCT116; conditions: FIG. 2d
# Experimental: as §1
# OPRK1 [2] = assay: Level of expression of OPRK1 by immunoblotting in A549 cells; conditions: A549 lung cancer cells, 1 nM to 10 μM for 48 h
# Experimental: as §2
# [3] = 10 nM or 10 μM 6-β-naltrexol 48 h, then gemcitabine or oxaliplatin at approx. 1/4 IC50 for 48 h
# [4] = 10 nM or 10 μM 6-β-naltrexol alone (6BN-0)
Structure (SMILES),cytotoxic effect of chemotherapeutic agents after priming (A549 cells; [3]),cytotoxicity of the agent alone (A549 cells; [4]),level of expression of OPRK1 (OPRK1 [1]),cytotoxic effect of chemotherapeutic agents after priming (HCT116 cells; [3]),cytotoxicity of the agent alone (HCT116 cells; [4]),level of expression of OPRK1 (OPRK1 [2])
"Oc1ccc2c3c1OC1[C@H](O)CC[C@@]4(O)[C@@H](C2)N(CC2CC2)CC[C@]314 (stereo partly drawn) [6-β-naltrexol, 17-(Cyclopropylmethyl)-4,5-epoxymorphinan-3,6 beta,14-triol]",cytotoxic effect of both chemotherapeutic agents is increased,absence of any independent increase in cytotoxicity,increases the level of expression of OPRK1,cytotoxic effect of both chemotherapeutic agents is increased,absence of any independent increase in cytotoxicity,increase the level of expression of ORPK1
"O=C1CC[C@@]2(O)[C@H]3Cc4ccc(O)c5c4[C@@]2(CCN3CC2CC2)[C@H]1O5 [naltrexone, reference compound]",,,down-regulates the level of expression of OPRK1,,,increase the level of expression of ORPK1
